# Experimental data reported in patent publication US5132111A (priority 1990, dated 1992).
# Non-standard residues stand in square brackets, D forms with d. Residues, ends and D or L forms follow the SMILES beside them. hArg = N=C(N)NCCCC[C@H](N)C(=O)O; Nle = CCCC[C@H](N)C(=O)O
# Tested on: cultured rat pituitary cells
# Format: cell-based
Compound,secretion of ACTH,secretion of β-endorphin (β-END-LI)
"CCCC[C@H](NC(=O)[C@H](CCC(=O)O)NC(=O)[C@H](CC(C)C)NC(=O)[C@H](CCCC)NC(=O)[C@H](CCC(=O)O)NC(=O)[C@H](CCCNC(=N)N)NC(=O)[C@H](CC(C)C)NC(=O)[C@H](CC(C)C)NC(=O)[C@H](Cc1c[nH]cn1)NC(=O)[C@H](Cc1ccccc1)NC(=O)[C@@H](NC(=O)[C@H](CC(C)C)NC(=O)[C@H](CC(=O)O)NC(=O)[C@H](CC(C)C)NC(=O)[C@H](CO)NC(=O)[C@@H](NC(=O)[C@@H]1CCCN1C(=O)[C@H]1CCCN1C(=O)[C@H](N)Cc1ccc(O)cc1)[C@@H](C)CC)[C@@H](C)O)C(=O)N[C@@H](C)C(=O)N[C@@H](CCCNC(=N)N)C(=O)N[C@@H](C)C(=O)N[C@@H](CCC(=O)O)C(=O)N[C@@H](CCC(N)=O)C(=O)N[C@@H](CCC(=O)O)C(=O)N[C@@H](C)C(=O)N[C@@H](CCC(=O)O)C(=O)N[C@@H](CCC(N)=O)C(=O)N[C@@H](C)C(=O)N[C@@H](C)C(=O)N[C@@H](CC(C)C)C(=O)N[C@@H](CC(N)=O)C(=O)N[C@@H](CCCNC(=N)N)C(=O)N[C@@H](CC(C)C)C(=O)N[C@@H](CC(C)C)C(=O)N[C@@H](CC(C)C)C(=O)N[C@@H](CCC(=O)O)C(=O)N[C@@H](CCC(=O)O)C(=O)N[C@@H](C)C(N)=O [[D-Tyr^3, D-Pro^4, Nle^18,21]-AHC(3-41)] (H-[dY][dP]PISLDLTFHLLRE[Nle]LE[Nle]ARAEQEAEQAALNRLLLEEA-NH2)",stimulates,stimulates
"CCCC[C@H](NC(=O)[C@H](CCC(=O)O)NC(=O)[C@H](CC(C)C)NC(=O)[C@H](CCCC)NC(=O)[C@H](CCC(=O)O)NC(=O)[C@H](CCCNC(=N)N)NC(=O)[C@H](CC(C)C)NC(=O)[C@H](CC(C)C)NC(=O)[C@H](Cc1c[nH]cn1)NC(=O)[C@H](Cc1ccccc1)NC(=O)[C@@H](NC(=O)[C@H](CC(C)C)NC(=O)[C@H](CC(=O)O)NC(=O)[C@H](CC(C)C)NC(=O)[C@H](CO)NC(=O)[C@@H](NC(=O)[C@@H]1CCCN1C(=O)[C@@H]1CCCN1C(=O)[C@H](N)Cc1ccc(O)cc1)[C@@H](C)CC)[C@@H](C)O)C(=O)N[C@@H](C)C(=O)N[C@@H](CCCNC(=N)N)C(=O)N[C@@H](C)C(=O)N[C@@H](CCC(=O)O)C(=O)N[C@@H](CCC(N)=O)C(=O)N[C@@H](CCC(=O)O)C(=O)N[C@@H](C)C(=O)N[C@@H](CCC(=O)O)C(=O)N[C@@H](CCC(N)=O)C(=O)N[C@@H](C)C(=O)N[C@@H](C)C(=O)N[C@@H](CC(C)C)C(=O)N[C@@H](CC(N)=O)C(=O)N[C@@H](CCCNC(=N)N)C(=O)N[C@@H](CC(C)C)C(=O)N[C@@H](CC(C)C)C(=O)N[C@@H](CC(C)C)C(=O)N[C@@H](CCC(=O)O)C(=O)N[C@@H](CCC(=O)O)C(=O)N[C@@H](C)C(N)=O [[D-Tyr^3, Nle^18,21]-AAHC(3-41)] (H-[dY]PPISLDLTFHLLRE[Nle]LE[Nle]ARAEQEAEQAALNRLLLEEA-NH2)",stimulates,stimulates
"CC[C@H](C)[C@H](NC(=O)[C@@H]1CCCN1C(=O)[C@@H]1CCCN1)C(=O)N[C@@H](CO)C(=O)N[C@@H](CC(C)C)C(=O)N[C@@H](CC(=O)O)C(=O)N[C@@H](CC(C)C)C(=O)N[C@H](C(=O)N[C@@H](CC(C)C)C(=O)N[C@@H](Cc1c[nH]cn1)C(=O)N[C@@H](CC(C)C)C(=O)N[C@@H](CC(C)C)C(=O)N[C@@H](CCCNC(=N)N)C(=O)N[C@@H](CCC(=O)O)C(=O)N[C@@H](CCSC)C(=O)N[C@@H](CC(C)C)C(=O)N[C@@H](CCC(=O)O)C(=O)N[C@@H](CCSC)C(=O)N[C@@H](CCC(=O)O)C(=O)N[C@@H](CCCCNC(=N)N)C(=O)N[C@@H](C)C(=O)N[C@@H](CCC(=O)O)C(=O)N[C@@H](CCC(N)=O)C(=O)N[C@@H](CCC(=O)O)C(=O)N[C@@H](C)C(=O)N[C@@H](CCC(=O)O)C(=O)N[C@@H](CCC(N)=O)C(=O)N[C@@H](C)C(=O)N[C@@H](C)C(=O)N[C@@H](CC(C)C)C(=O)N[C@@H](CC(N)=O)C(=O)N[C@@H](CCCNC(=N)N)C(=O)N[C@@H](CCCCNC(=N)N)C(=O)N[C@@H](CC(C)C)C(=O)N[C@@H](CC(C)C)C(=O)N[C@@H](CCC(=O)O)C(=O)N[C@@H](CCC(=O)O)C(=O)N[C@@H](C)C(N)=O)[C@@H](C)O [[Glu^22, Leu^12, Har^23,36]-AHC(4-41)] (H-PPISLDLTLHLLREMLEME[hArg]AEQEAEQAALNR[hArg]LLEEA-NH2)",stimulates,stimulates
"CCCC[C@H](NC(=O)[C@H](CCC(=O)O)NC(=O)[C@H](CC(C)C)NC(=O)[C@H](CCCC)NC(=O)[C@H](CCC(=O)O)NC(=O)[C@H](CCCNC(=N)N)NC(=O)[C@H](CC(C)C)NC(=O)[C@H](CC(C)C)NC(=O)[C@H](Cc1c[nH]cn1)NC(=O)[C@H](Cc1ccccc1)NC(=O)[C@@H](NC(=O)[C@H](CC(C)C)NC(=O)[C@H](CC(=O)O)NC(=O)[C@H](CC(C)C)NC(=O)[C@H](CO)NC(=O)[C@@H](N)[C@@H](C)CC)[C@@H](C)O)C(=O)N[C@@H](C)C(=O)N[C@@H](CCCNC(=N)N)C(=O)N[C@@H](C)C(=O)N[C@@H](CCC(=O)O)C(=O)N[C@@H](CCC(N)=O)C(=O)N[C@@H](CCC(=O)O)C(=O)N[C@@H](C)C(=O)N[C@@H](CCC(=O)O)C(=O)N[C@@H](CCC(N)=O)C(=O)N[C@@H](C)C(=O)N[C@@H](C)C(=O)N[C@@H](CC(C)C)C(=O)N[C@@H](CC(N)=O)C(=O)N[C@@H](CCCNC(=N)N)C(=O)N[C@@H](CCCNC(=N)N)C(=O)N[C@@H](CC(C)C)C(=O)N[C@@H](CC(C)C)C(=O)N[C@@H](CCC(=O)O)C(=O)N[C@@H](CCC(=O)O)C(=O)N[C@@H](C)C(N)=O [[Nle^18,21, Arg^36]-AAHC(6-41)] (H-ISLDLTFHLLRE[Nle]LE[Nle]ARAEQEAEQAALNRRLLEEA-NH2)",stimulates,stimulates
"CCCC[C@H](NC(=O)[C@H](CCC(=O)O)NC(=O)[C@H](CC(C)C)NC(=O)[C@H](CCCC)NC(=O)[C@H](CCC(=O)O)NC(=O)[C@H](CCCNC(=N)N)NC(=O)[C@H](CC(C)C)NC(=O)[C@H](CC(C)C)NC(=O)[C@H](Cc1c[nH]cn1)NC(=O)[C@H](Cc1ccccc1)NC(=O)[C@@H](NC(=O)[C@H](CC(C)C)NC(=O)[C@H](CC(=O)O)NC(=O)[C@H](CC(C)C)NC(=O)[C@H](CO)NC(=O)[C@@H](NC(=O)[C@@H]1CCCN1)[C@@H](C)CC)[C@@H](C)O)C(=O)N[C@@H](C)C(=O)N[C@@H](CCCNC(=N)N)C(=O)N[C@@H](C)C(=O)N[C@@H](CCC(=O)O)C(=O)N[C@@H](CCC(N)=O)C(=O)N[C@@H](CCC(=O)O)C(=O)N[C@@H](C)C(=O)N[C@@H](CCC(=O)O)C(=O)N[C@@H](CCC(N)=O)C(=O)N[C@@H](C)C(=O)N[C@@H](C)C(=O)N[C@@H](CC(C)C)C(=O)N[C@@H](CC(N)=O)C(=O)N[C@@H](CCCNC(=N)N)C(=O)N[C@@H](CC(C)C)C(=O)N[C@@H](CC(C)C)C(=O)N[C@@H](CC(C)C)C(=O)N[C@@H](CCC(=O)O)C(=O)N[C@@H](CCC(=O)O)C(=O)N[C@@H](C)C(N)=O [[Nle^18,21, ]-AAHC(5-41)] (H-PISLDLTFHLLRE[Nle]LE[Nle]ARAEQEAEQAALNRLLLEEA-NH2)",stimulates,stimulates
"H-GEEPPISLDLTFHLLREVLEMARAEQLAQQAHLNRRLMEEI-NH2 [[Gly^1, Leu^33, Glu^40]-rCRF]",stimulates,stimulates
H-PPISLDLTFHLLREVLEMARAEQLAEQAHSNRRYMEEI-NH2,stimulates,stimulates
H-PPISLDLTFHLLREVLEMARAEQLAQQAHLNRRLMEEI-NH2,stimulates,stimulates
"H-SEEPPISLDLTFHLLREVLEMTRAEQLAEQAHSNRRLMEEI-NH2 [[Thr^22, Glu^29,40, Arg^36]-rCRF]",stimulates,stimulates
"H-SEEPPISLDLTFHLLREVLE[Nle]ARAEQLAEQAHSNRRL[Nle]EII-NH2 [[Nle^21,38, Glu^29, Arg^36]-rCRF]",stimulates,stimulates
H-SEEPPISLDLTFHLLREVLE[Nle]ARAEQLAQQAYLNRRL[Nle]EEI-NH2,stimulates,stimulates
H-SEEPPISLDLTFHLLREVLE[Nle]A[hArg]AEQLAQQAHLNRRLMEE[Nle]-NH2,stimulates,stimulates
H-SEEPPISLDLTLELLREMLEME[hArg]AEREAEQAALNRLLLEEA-NH2,stimulates,stimulates
H-SEEPPISLELTFHLLREVLE[Nle]ARAEQLAEQAHLNRRL[Nle]EII-NH2,stimulates,stimulates
H-SEEPPIS[Nle]DLSFHLLREVLEMARAEQLAQQAHLNRRLMEEI-NH2,stimulates,stimulates
H-SQEPPISLDLTFALLREMLEMARAEQEAEQAALNRLLLEEA-NH2 [[Ala13]-AAHC],stimulates,stimulates
H-SQEPPISLDLTFHLLREMLEMARAEQEAEQAALNRLLLEEA-NH2 [AAHC],biologically potent to stimulate the secretion,biologically potent to stimulate the secretion
"H-SQEPPISLDLTFHLLREVLEMARAEQLAEQAHSNRRLLEII-NH2 [[Gln^2, Glu^29, Leu^38]-rCRF]",stimulates,stimulates
"H-SQEPPISLDLTFHLLREVLEMTRADQLAQQAHSNRRLLDIA-NH2 [[Arg^23,36]-oCRF]",stimulates,stimulates
"H-SQEPPISLDLTFHLLREVLE[Nle]TRADQLAQQAHSNRRLLDIA-NH2 [[Nle^21, Arg^23,36]-oCRF]",stimulates,stimulates
"H-SQEPPISLDLTFHLLRE[Nle]LE[Nle]ARAEQEAEQAALNRLLLEEA-NH2 [[Nle^18, 21]-AAHC]",stimulates,stimulates
"H-SQEPPISLDLTFHLLRE[Nle]LE[Nle]TRADQLRQQAHSNRRLLDIA-NH2 [[Nle^18,21,Arg^23,28,36]-oCRF]",stimulates,stimulates
"H-SQEPPISLELTFHLLRE[Nle]LE[Nle]ARAEQEAEQAALNRLLLEEA-NH2 [[Glu^9, Nle^18, 21]-AAHC]",stimulates,stimulates
